According to ChEMBL document CHEMBL2073947, “The human multidrug resistance protein MRP4 functions as a prostaglandin efflux transporter and is inhibited by nonsteroidal antiinflammatory drugs” (Proc Natl Acad Sci U S A, 2003):
Values belong to the molecule of their own block, whether it stands above or below them.

Columns and labels:
Parameters in all cases: scale not given: the % may be the effect or the level left
[1] = target: Multidrug resistance associated protein (Homo sapiens) (UniProt Q96QA9); experiment: TP_TRANSPORTER: inhibition of alaninyl-d4TMP by Prostaglandin A1 at a concentration of 20uM in membrane vesicle from MRP3-expressing Sf9 cells; assay type: functional, cell membranes
[2] = target: T1, MRP5 (ATP-binding cassette sub-family C member 5) (Homo sapiens, UniProt O15440); experiment: TP_TRANSPORTER: inhibition of alaninyl-d4TMP by Prostaglandin A1 at a concentration of 20uM in membrane vesicle from MRP5-expressing HEK293 cells; assay type: functional, cell membranes; details: probe alaninyl-d4TMP, read-out: Activity
[3] = target: T2, ATP-binding cassette sub-family C member 4 (Homo sapiens, UniProt O15439); experiment: TP_TRANSPORTER: inhibition of alaninyl-d4TMP in the presence of Prostaglandin A1 at a concentration of 20uM in membrane vesicles from MRP4-expressing Sf9 cells; assay type: functional, cell membranes, Membrane vesicle; details: sf9, 20 µM
T2 sequence (O15439 whole entry): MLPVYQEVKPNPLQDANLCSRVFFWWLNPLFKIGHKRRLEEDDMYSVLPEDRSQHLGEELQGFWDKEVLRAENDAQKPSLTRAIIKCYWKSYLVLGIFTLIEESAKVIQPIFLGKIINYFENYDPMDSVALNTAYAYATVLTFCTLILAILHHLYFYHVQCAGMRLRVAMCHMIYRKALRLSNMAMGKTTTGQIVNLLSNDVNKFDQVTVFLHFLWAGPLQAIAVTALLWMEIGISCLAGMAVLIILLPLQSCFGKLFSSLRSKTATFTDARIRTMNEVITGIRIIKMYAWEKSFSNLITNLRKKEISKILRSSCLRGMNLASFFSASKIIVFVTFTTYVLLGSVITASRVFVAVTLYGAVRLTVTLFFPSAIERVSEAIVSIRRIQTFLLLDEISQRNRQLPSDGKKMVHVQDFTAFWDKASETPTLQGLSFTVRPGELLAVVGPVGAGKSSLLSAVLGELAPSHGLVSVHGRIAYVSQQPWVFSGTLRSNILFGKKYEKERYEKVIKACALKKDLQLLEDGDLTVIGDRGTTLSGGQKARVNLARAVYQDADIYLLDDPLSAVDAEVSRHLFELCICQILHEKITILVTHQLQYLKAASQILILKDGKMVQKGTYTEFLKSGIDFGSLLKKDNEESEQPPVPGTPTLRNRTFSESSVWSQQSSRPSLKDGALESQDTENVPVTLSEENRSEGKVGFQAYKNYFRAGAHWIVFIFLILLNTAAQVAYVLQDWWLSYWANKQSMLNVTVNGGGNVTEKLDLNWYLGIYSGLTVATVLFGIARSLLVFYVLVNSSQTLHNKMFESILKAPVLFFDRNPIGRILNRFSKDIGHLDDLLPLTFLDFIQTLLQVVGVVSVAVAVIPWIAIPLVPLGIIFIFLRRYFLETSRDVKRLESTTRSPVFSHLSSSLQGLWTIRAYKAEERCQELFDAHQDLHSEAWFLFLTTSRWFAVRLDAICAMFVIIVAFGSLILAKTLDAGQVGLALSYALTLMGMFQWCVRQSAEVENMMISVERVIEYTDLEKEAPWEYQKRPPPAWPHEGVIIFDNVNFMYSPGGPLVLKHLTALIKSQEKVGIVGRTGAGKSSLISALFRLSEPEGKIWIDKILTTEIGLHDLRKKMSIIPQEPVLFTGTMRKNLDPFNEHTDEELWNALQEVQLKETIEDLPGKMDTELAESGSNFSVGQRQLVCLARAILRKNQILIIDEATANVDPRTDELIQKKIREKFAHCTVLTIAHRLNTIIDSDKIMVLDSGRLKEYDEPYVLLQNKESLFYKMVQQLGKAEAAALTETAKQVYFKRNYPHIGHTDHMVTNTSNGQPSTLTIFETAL

[4] = target: T2, ATP-binding cassette sub-family C member 4; experiment: TP_TRANSPORTER: inhibition of alaninyl-d4TMP in the presence of Prostaglandin F2alpha at a concentration of 20uM in membrane vesicles from MRP4-expressing Sf9 cells; assay type: functional, cell membranes, Membrane vesicle; details: sf9, 20 µM
[5] = target: T1, MRP5 (ATP-binding cassette sub-family C member 5); experiment: TP_TRANSPORTER: inhibition of alaninyl-d4TMP by Prostaglandin F2alpha at a concentration of 20uM in membrane vesicle from MRP5-expressing HEK293 cells; assay type: functional, cell membranes; details: membrane vesicles from MRP5-expressing HEK293 cells, probe alaninyl-d4TMP, read-out: Activity
[6] = target: T3, MRP4 (ATP-binding cassette sub-family C member 4) (Homo sapiens, UniProt O15439); experiment: TP_TRANSPORTER: inhibition of E217betaG in the presence of Indoprofen at a concentration of 50uM in membrane vesicles from MRP4-expressing Sf9 cells; assay type: functional, cell membranes, Membrane vesicle; details: probe E217betaG, read-out: Activity
T3 sequence (O15439 whole entry): T2 sequence (O15439 whole entry)

[7] = target: T2, ATP-binding cassette sub-family C member 4; experiment: TP_TRANSPORTER: inhibition of E217betaG in the presence of Celecoxib at a concentration of 50uM in membrane vesicles from MRP4-expressing Sf9 cells; assay type: functional, cell membranes, Membrane vesicle; details: sf9, 50 µM
[8] = target: T1, MRP5 (ATP-binding cassette sub-family C member 5); experiment: TP_TRANSPORTER: inhibition of alaninyl-d4TMP by Prostaglandin E2 at a concentration of 20uM in membrane vesicle from MRP5-expressing HEK293 cells; assay type: functional, cell membranes; details: membrane vesicles from MRP5-expressing HEK293 cells, probe alaninyl-d4TMP, read-out: Activity
[9] = target: T3, MRP4 (ATP-binding cassette sub-family C member 4); experiment: TP_TRANSPORTER: inhibition of alaninyl-d4TMP in the presence of Prostaglandin F1alpha at a concentration of 20uM in membrane vesicles from MRP4-expressing Sf9 cells; assay type: functional, cell membranes, Membrane vesicle; details: probe alaninyl-d4TMP, read-out: Activity
[10] = target: Multidrug resistance-associated protein 1 (Homo sapiens, UniProt P33527); experiment: TP_TRANSPORTER: inhibition of E217betaG in the presence of Diclofenac at a concentration of 100uM in membrane vesicles from MRP1-expressing Sf9 cells; assay type: functional, cell membranes, Membrane vesicle; details: sf9, 100 µM
[11] = target: T3, MRP4 (ATP-binding cassette sub-family C member 4); experiment: TP_TRANSPORTER: inhibition of E217betaG in the presence of Diclofenac at a concentration of 100uM in membrane vesicles from MRP4-expressing Sf9 cells; assay type: functional, cell membranes, Membrane vesicle; details: probe E217betaG, read-out: Activity

T1 sequence (O15440 whole entry): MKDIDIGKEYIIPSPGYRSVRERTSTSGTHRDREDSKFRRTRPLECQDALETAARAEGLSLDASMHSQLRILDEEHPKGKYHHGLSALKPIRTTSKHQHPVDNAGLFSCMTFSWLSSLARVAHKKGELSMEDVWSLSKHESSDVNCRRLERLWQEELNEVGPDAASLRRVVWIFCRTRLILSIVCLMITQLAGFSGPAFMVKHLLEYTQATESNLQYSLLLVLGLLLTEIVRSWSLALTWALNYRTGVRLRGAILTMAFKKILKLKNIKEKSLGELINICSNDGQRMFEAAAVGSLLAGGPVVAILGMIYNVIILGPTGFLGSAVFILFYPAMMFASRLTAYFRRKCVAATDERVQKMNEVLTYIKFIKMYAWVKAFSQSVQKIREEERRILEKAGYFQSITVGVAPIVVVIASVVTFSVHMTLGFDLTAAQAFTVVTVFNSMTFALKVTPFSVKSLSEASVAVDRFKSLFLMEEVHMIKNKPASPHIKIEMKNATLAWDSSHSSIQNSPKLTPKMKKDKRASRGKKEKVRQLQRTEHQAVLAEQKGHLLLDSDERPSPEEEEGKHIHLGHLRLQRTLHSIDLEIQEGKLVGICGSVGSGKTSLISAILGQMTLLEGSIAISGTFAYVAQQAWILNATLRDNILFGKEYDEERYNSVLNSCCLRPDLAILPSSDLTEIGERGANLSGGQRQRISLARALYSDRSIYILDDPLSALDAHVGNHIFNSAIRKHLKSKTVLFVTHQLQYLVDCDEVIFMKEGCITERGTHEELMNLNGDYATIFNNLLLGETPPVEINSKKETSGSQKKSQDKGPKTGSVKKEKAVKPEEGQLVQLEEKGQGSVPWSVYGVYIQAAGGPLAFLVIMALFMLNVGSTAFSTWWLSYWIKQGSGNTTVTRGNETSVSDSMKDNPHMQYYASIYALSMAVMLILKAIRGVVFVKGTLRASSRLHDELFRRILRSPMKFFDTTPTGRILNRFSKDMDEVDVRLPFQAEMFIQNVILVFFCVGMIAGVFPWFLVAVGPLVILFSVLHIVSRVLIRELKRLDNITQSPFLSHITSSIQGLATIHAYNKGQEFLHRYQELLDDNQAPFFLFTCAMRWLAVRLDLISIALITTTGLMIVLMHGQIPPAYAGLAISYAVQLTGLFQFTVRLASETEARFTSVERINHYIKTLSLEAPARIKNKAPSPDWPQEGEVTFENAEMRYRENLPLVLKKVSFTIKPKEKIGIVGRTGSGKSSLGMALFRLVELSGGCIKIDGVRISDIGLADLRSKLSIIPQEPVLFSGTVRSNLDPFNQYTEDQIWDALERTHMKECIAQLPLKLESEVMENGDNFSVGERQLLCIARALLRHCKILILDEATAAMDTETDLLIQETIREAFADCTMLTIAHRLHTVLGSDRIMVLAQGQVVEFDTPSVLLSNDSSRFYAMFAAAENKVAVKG
Chain of Multidrug resistance associated protein (Homo sapiens) (Q96QA9 as listed by the source): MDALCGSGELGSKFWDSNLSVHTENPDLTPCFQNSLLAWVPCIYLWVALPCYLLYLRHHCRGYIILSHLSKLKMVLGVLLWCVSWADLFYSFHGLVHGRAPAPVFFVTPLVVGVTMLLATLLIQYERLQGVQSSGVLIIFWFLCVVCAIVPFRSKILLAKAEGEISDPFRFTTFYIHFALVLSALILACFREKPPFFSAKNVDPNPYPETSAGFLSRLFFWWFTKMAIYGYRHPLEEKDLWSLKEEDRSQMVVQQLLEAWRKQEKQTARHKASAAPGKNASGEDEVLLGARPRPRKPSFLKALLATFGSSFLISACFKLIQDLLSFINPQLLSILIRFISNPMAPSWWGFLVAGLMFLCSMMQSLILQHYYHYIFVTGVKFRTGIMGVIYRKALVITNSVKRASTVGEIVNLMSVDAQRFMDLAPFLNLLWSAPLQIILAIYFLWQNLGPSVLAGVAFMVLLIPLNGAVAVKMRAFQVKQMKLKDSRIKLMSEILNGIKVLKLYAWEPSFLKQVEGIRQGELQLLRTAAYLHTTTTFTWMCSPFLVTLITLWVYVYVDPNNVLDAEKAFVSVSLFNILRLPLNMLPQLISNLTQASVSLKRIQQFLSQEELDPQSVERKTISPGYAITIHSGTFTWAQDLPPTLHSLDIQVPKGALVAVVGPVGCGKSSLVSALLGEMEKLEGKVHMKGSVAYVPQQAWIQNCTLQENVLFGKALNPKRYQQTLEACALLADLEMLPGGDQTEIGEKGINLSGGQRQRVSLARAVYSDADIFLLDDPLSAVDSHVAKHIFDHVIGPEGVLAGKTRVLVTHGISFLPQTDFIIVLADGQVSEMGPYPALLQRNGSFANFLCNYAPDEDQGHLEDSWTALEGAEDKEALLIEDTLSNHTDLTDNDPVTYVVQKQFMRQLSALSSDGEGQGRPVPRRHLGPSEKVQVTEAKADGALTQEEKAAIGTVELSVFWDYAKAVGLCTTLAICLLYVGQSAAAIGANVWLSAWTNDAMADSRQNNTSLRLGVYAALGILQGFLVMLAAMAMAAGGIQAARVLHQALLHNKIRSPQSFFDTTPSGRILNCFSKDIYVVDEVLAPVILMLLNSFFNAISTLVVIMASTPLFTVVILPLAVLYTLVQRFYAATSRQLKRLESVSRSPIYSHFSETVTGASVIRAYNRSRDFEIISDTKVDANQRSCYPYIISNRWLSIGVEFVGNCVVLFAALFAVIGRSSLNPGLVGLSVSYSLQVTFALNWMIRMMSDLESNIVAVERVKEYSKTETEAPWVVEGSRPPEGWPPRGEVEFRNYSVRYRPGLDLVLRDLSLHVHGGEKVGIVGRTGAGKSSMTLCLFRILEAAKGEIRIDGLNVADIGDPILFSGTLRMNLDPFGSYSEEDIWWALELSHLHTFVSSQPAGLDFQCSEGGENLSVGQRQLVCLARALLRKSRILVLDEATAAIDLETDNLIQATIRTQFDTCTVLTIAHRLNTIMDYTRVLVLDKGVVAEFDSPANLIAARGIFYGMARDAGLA
Chain of Multidrug resistance-associated protein 1 (P33527 whole entry): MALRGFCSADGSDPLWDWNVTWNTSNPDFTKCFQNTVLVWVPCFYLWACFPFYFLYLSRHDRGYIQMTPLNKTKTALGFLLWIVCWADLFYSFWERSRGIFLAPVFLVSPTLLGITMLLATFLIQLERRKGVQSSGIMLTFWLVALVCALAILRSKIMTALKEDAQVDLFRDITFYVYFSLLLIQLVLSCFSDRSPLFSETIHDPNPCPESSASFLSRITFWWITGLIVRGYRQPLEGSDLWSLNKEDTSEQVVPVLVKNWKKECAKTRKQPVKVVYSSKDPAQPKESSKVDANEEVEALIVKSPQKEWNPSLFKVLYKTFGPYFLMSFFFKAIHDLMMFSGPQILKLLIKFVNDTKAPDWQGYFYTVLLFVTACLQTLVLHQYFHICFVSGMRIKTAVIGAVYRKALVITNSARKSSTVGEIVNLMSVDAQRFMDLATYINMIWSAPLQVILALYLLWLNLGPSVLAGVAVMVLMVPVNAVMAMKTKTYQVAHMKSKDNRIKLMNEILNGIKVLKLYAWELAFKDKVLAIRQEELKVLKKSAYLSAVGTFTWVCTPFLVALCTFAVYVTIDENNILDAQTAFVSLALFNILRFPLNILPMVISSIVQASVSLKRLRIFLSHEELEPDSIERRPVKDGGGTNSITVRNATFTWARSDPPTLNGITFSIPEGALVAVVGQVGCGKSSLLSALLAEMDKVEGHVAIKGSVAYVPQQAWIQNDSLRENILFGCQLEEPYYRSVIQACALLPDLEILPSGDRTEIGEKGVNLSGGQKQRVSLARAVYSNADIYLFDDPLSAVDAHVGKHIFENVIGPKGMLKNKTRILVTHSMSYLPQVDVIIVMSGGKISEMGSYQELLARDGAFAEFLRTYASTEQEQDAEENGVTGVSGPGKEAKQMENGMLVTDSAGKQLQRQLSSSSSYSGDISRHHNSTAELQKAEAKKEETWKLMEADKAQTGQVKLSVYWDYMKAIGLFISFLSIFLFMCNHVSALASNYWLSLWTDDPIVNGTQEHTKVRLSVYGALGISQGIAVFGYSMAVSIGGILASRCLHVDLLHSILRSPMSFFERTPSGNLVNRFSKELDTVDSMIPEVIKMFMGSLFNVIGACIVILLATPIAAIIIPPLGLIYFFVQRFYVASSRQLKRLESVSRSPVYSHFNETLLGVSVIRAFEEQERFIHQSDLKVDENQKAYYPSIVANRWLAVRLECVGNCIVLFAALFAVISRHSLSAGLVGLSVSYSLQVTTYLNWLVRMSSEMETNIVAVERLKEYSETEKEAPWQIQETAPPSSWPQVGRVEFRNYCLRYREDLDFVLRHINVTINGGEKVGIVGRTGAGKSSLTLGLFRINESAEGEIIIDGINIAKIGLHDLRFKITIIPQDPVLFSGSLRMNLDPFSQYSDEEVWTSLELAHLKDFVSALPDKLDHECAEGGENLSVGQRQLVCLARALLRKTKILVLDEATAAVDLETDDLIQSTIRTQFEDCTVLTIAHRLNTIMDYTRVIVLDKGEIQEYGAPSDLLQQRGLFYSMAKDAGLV

SMILES: CCCCC[C@H](O)/C=C/[C@H]1C=CC(=O)[C@@H]1CCCCCCC(=O)O [PROSTAGLANDIN A1]
Activity [1]: 76% | activity at 20 µM [2]: 51% | Activity [3]: 2%

SMILES: CC(C(=O)O)c1ccc(N2Cc3ccccc3C2=O)cc1 (stereo unspecified) [INDOPROFEN]
activity at 50 µM [6]: 17%

SMILES: CCCCC[C@H](O)/C=C/[C@H]1[C@H](O)CC(=O)[C@@H]1C/C=C\CCCC(=O)O [DINOPROSTONE]
activity at 20 µM [8]: 74%

The next lines start with the values.

Activity [4]: 15% | activity at 20 µM [5]: 63%
SMILES: CCCCC[C@H](O)/C=C/[C@@H]1[C@@H](C/C=C\CCCC(=O)O)[C@@H](O)C[C@H]1O [DINOPROST]

Activity [7]: 78%
SMILES: Cc1ccc(-c2cc(C(F)(F)F)nn2-c2ccc(S(N)(=O)=O)cc2)cc1 [CELECOXIB]

activity at 20 µM [9]: 29%
SMILES: CCCCC[C@H](O)/C=C/[C@@H]1[C@@H](CCCCCCC(=O)O)[C@@H](O)C[C@H]1O [PROSTAGLANDIN F1ALPHA]

Activity [10]: 82% | activity at 100 µM [11]: 61%
SMILES: O=C(O)Cc1ccccc1Nc1c(Cl)cccc1Cl [DICLOFENAC]
